Source: ChEMBL document CHEMBL1201862, “PubChem BioAssay data set” (2004)
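Where inhibition never reached the appropriate level, the endpoint shown equals the highest concentration tested. Otherwise, values were interpolated linearly from a five-concentration, 48-hour dose response in 96-well plates. GI50 = concentration required for 50% inhibition of growth.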 The source made the active and inactive calls. Cut-off read from the data, not from the text of the source: active = GI50 up to about 1.1 µM and inactive = higher. Non-standard residues stand in square brackets, D forms with d. Residues, ends and D or L forms follow the SMILES beside them. ξ: configuration not given here. *: point of attachment. ξNMeF = CNC(Cc1ccccc1)C(=O)O; NMeV = CN[C@H](C(=O)O)C(C)C; Boc = CC(C)(C)OC(=O)*; OBn = c1ccc(CO*)cc1

What was measured:
Experiment in all cases: inhibition of tumour cell growth, NCI panel, 48 h
NCI-H460 = test system: NCI-H460
DMS-273 = test system: DMS-273
HOP-62 = test system: HOP-62
U-251 = test system: U-251
RXF 393 = test system: RXF 393
SNB-75 = test system: SNB-75
A549 = test system: A549
SK-MEL-2 = test system: SK-MEL-2
HT-29 = test system: HT-29
COLO 205 = test system: COLO 205
DLD-1 = test system: DLD-1
SN12C = test system: SN12C
M19-MEL = test system: M19-MEL
IGROV-1 = test system: IGROV-1
EKVX = test system: EKVX
OVCAR-5 = test system: OVCAR-5

Measured: GI50

CCOC(=O)NC(=O)c1cn(CCCCCOC(=O)NCCCCCCNC(=O)OCCCCCn2cc(C(=O)NC(=O)OCC)c(=O)[nH]c2=O)c(=O)[nH]c1=O
inactive: NCI-H460 > 100 µM | DMS-273 > 100 µM | HOP-62 > 100 µM | U-251 > 100 µM | RXF 393 > 100 µM | SNB-75 > 100 µM | A549 > 100 µM | SK-MEL-2 > 100 µM | HT-29 > 100 µM | COLO 205 > 100 µM | DLD-1 > 100 µM | SN12C > 100 µM | M19-MEL > 100 µM | IGROV-1 > 100 µM | EKVX > 100 µM

CC(=O)c1ccc(NC(=O)C(=O)CC(=O)c2sc(-n3nc(-c4ccccc4)cc3-c3ccccc3)nc2C)cc1
inactive: NCI-H460 > 100 µM | DMS-273 > 100 µM | HOP-62 > 100 µM | U-251 > 100 µM | OVCAR-5 > 100 µM | RXF 393 > 100 µM | A549 > 100 µM | SK-MEL-2 > 100 µM | HT-29 > 100 µM | COLO 205 > 100 µM | DLD-1 > 100 µM | SN12C > 100 µM | M19-MEL > 100 µM | IGROV-1 > 100 µM | EKVX > 100 µM

CC1(C)C2=CCCC(=O)[C@@]2(C)CC[C@@H]1O
inactive: NCI-H460 > 100 µM | DMS-273 > 100 µM | HOP-62 > 100 µM | U-251 > 100 µM | OVCAR-5 > 100 µM | RXF 393 > 100 µM | SNB-75 > 100 µM | A549 > 100 µM | SK-MEL-2 5.97 µM | HT-29 > 100 µM | COLO 205 > 100 µM | DLD-1 > 100 µM | SN12C > 100 µM | M19-MEL > 100 µM | IGROV-1 > 100 µM | EKVX > 100 µM

O=C1c2ccccc2C(=O)C2C1C1C(=O)c3ccccc3C(=O)C21 (stereo not given)
inactive: NCI-H460 > 100 µM | DMS-273 > 100 µM | HOP-62 > 100 µM | U-251 > 100 µM | OVCAR-5 42.3 µM | RXF 393 > 100 µM | SNB-75 57.4 µM | A549 > 100 µM | SK-MEL-2 > 100 µM | HT-29 > 100 µM | COLO 205 > 100 µM | DLD-1 15.2 µM | SN12C > 100 µM | M19-MEL 45.4 µM | IGROV-1 79.1 µM | EKVX > 100 µM

N#CCCN(CCC#N)c1ccc(/C=C(\NC(=O)c2cc([N+](=O)[O-])ccc2Cl)C(=O)Nc2ccccc2)cc1
inactive: DMS-273 54.2 µM | HOP-62 45.2 µM | U-251 > 100 µM | OVCAR-5 99.8 µM | RXF 393 > 100 µM | A549 > 100 µM | SK-MEL-2 > 100 µM | COLO 205 67.9 µM | DLD-1 18.5 µM | SN12C > 100 µM | M19-MEL > 100 µM | IGROV-1 > 100 µM | EKVX > 100 µM

Brc1ccc2c(c1)C1C(CO2)C(c2ccccc2)=NN1c1ccccc1 (stereo not given)
inactive: NCI-H460 > 100 µM | DMS-273 > 100 µM | HOP-62 > 100 µM | U-251 > 100 µM | OVCAR-5 > 100 µM | RXF 393 > 100 µM | SNB-75 > 100 µM | A549 > 100 µM | SK-MEL-2 > 100 µM | HT-29 54.2 µM | COLO 205 > 100 µM | DLD-1 > 100 µM | M19-MEL > 100 µM | IGROV-1 > 100 µM | EKVX > 100 µM

CC1c2c(Cl)nc3ccccc3c2Oc2c1c(Cl)nc1ccccc21
inactive: NCI-H460 > 100 µM | DMS-273 53.2 µM | HOP-62 > 100 µM | U-251 61.9 µM | OVCAR-5 > 100 µM | RXF 393 41.3 µM | SNB-75 56 µM | A549 68.4 µM | SK-MEL-2 64.6 µM | HT-29 82.8 µM | COLO 205 > 100 µM | DLD-1 > 100 µM | M19-MEL > 100 µM | IGROV-1 > 100 µM | EKVX 37.6 µM

CCCCN1C(=O)NC(Cc2ccccc2)C1=O (stereo not given)
inactive: NCI-H460 > 100 µM | DMS-273 > 100 µM | HOP-62 > 100 µM | U-251 > 100 µM | OVCAR-5 > 100 µM | RXF 393 > 100 µM | SNB-75 > 100 µM | A549 > 100 µM | SK-MEL-2 > 100 µM | HT-29 > 100 µM | DLD-1 > 100 µM | SN12C > 100 µM | M19-MEL > 100 µM | EKVX > 100 µM

COP1(=O)Oc2ccccc2C(=O)C(C(F)(F)F)(C(F)(F)F)O1 (stereo not given)
inactive: NCI-H460 > 100 µM | DMS-273 > 100 µM | HOP-62 > 100 µM | U-251 > 100 µM | OVCAR-5 > 100 µM | RXF 393 > 100 µM | SNB-75 > 100 µM | A549 > 100 µM | SK-MEL-2 > 100 µM | HT-29 > 100 µM | COLO 205 > 100 µM | DLD-1 > 100 µM | SN12C > 100 µM | M19-MEL > 100 µM | IGROV-1 > 100 µM | EKVX > 100 µM

COC1CCC2C(NS(=O)(=O)c3ccc(C)cc3)CCCC2O1.Cc1ccc(S(=O)(=O)NC(C)(C)C=O)cc1 (stereo not given)
inactive: NCI-H460 11.6 µM | DMS-273 8.41 µM | HOP-62 20.8 µM | U-251 > 34.5 µM | OVCAR-5 > 34.5 µM | RXF 393 11.4 µM | SNB-75 25 µM | A549 16.2 µM | SK-MEL-2 > 34.5 µM | HT-29 11.4 µM | DLD-1 20.3 µM | SN12C 23.5 µM | M19-MEL 12.7 µM | IGROV-1 16.4 µM | EKVX 31 µM

O=C(NO)c1ccc(O)c(O)c1
inactive: NCI-H460 70.3 µM | DMS-273 27.8 µM | HOP-62 > 100 µM | U-251 > 100 µM | OVCAR-5 94.6 µM | RXF 393 > 100 µM | SNB-75 > 100 µM | A549 > 100 µM | HT-29 > 100 µM | COLO 205 > 100 µM | DLD-1 > 100 µM | SN12C > 100 µM | M19-MEL > 100 µM | IGROV-1 > 100 µM | EKVX > 100 µM

CC(C)[C@@H](C(=O)N(C)[C@H](C(=O)N1CCC[C@H]1C(=O)OCc1ccccc1)C(C)C)N(C)C(=O)C(Cc1ccccc1)N(C)C(=O)[C@H](NC(=O)OC(C)(C)C)C(C)C (stereo not given in full) (Boc-[dV][ξNMeF][NMeV][NMeV]P-OBn)
inactive: NCI-H460 > 31.6 µM | DMS-273 > 31.6 µM | HOP-62 > 31.6 µM | U-251 > 31.6 µM | OVCAR-5 > 31.6 µM | RXF 393 > 31.6 µM | SNB-75 14 µM | A549 > 31.6 µM | SK-MEL-2 > 31.6 µM | HT-29 > 31.6 µM | COLO 205 > 82.6 µM | DLD-1 > 31.6 µM | M19-MEL > 31.6 µM | IGROV-1 > 31.6 µM | EKVX > 31.6 µM
